Earlier results as cited in patent publication US11865247B2, “Inhalers and related methods” (Norton (Waterford) Limited, priority 2017, dated 2024).

surface tension (as liquid at 25° C.): about 8 mN/m
vapor pressure (at 20° C.): 572 kpa
Compound: FCC(F)(F)F [HFA134a, 1,1,1,2-tetrafluoroethane]
